In patent US11234982B2, “Methods for treating ocular surface pain” (NOVARTIS AG, priority 2019, dated 2022):
Like-named read-outs stand apart in the source and are kept apart here.

Experiments:
Format in all cases: in vivo, human
healthy volunteers = assay: Hand immersion test at 49° C. during MAD part; details: water at 49° C.
Description: Safety assessments: Safety assessments consisted of collecting all adverse events (AEs), serious adverse events (SAEs), including systemic and ocular adverse events, along with their severity and relationship to study drug. Systemic safety assessments included regular monitoring of hematology, blood chemistry and urinalysis performed at study center and regular assessments of physical examination, vital signs (systolic and diastolic blood pressure, pulse rate, and body temperature), ECG, pregnancy and assessments of fertility and hand immersion test at 49° C. during MAD part. Ocular safety assessments included early treatment diabetic retinopathy study (ETDRS) visual acuity, intraocular pressure, slit-lamp biomicroscopy, corneal staining and dilated fundus exam.
For the hand immersion test, all subjects in the treatment cohorts withdrew their hand from water at 49° C. at a time interval between 0 to ≤50 secs.

[1] = PRK study: plasma pharmacokinetics of compound I; details: for Tmax: read-out: Tmax, Min, Max
Description: Pharmacokinetic (PK) samples were collected at the time points defined in the visit schedule supra, with PK blood collection windows shown in Table 9.
All blood samples (3 mL) were taken from the arm by either direct venipuncture or an indwelling catheter inserted in a forearm vein. After each tube of blood was drawn, it was immediately inverted gently 8-10 times to ensure the mixing of tube contents with anticoagulant (3 mL K2 EDTA). Prolonged sample contact with the rubber stopper was avoided and the tubes were placed upright in a test tube rack surrounded by wet ice until centrifugation.
Within 30 minutes, the sample was centrifuged at about 5° C. for 10 minutes at approximately 2000 G (or the sample was placed on ice and centrifuged at room temperature). Immediately after centrifugation, the whole supernatant (approx. 1.5 mL) was transferred in the first 1.8 mL NUNC 2D barcoded cryovial. After mixing the plasma thoroughly, half of the plasma was transferred from the first cryovial to the second cryovial and the caps were secured. Appropriate PK cryolabels were attached to each cryovial and the labels were secured with clear tape. The cryovials were frozen immediately over dry ice then, kept frozen at ≤−20° C. until shipment to the central lab. The vials were shipped in biweekly batches.
Compound I was quantified in plasma using a validated LC-MS/MS method; the lower limit of quantification (LLOQ) was 0.05 ng/mL. Concentrations were expressed in ng per mL units. When feasible, bandage contact lenses (BCL) exposed to study drug were collected and analyzed for residual drug exposure after treatment (LLOQ: 5.00 ng/mL in 0.55 mL of extraction fluid, or 2.75 ng/BCL). Concentrations below the LLOQ were reported as “zero” and missing data were labeled as such.
The following PK parameters were determined as relevant using the actual recorded sampling times and non-compartmental method with Phoenix™ WinNonlin® (Version 6.4): Cmax, Tmax, AUClast (calculated), Clast and Tlast from the plasma concentration-time data. Pre-dose concentrations were determined by inspection at nominal 0, 24 and 72 hours. The linear trapezoidal rule was used for AUClast calculation. No PK parameters were calculated from the bandage contact lenses compound I concentration data.

[2] = test system: patients undergoing photorefractive keratectomy (PRK) surgery; assay: PRK study: Ocular Pain Assessment Survey (OPAS)
Description: The study was a proof of concept, double-masked, randomized, vehicle-controlled study of compound I administered as eye drops in addition to standard of care treatment in patients after PRK surgery. PRK surgery was performed as an outpatient procedure under topical anesthesia with removal of the corneal epithelium to expose the stroma for the laser ablation. Compound I dosing was as single eye drop of 2.5% (25 mg/ml, 0.925 mg/drop), administered four times daily (every six hours) in one eye from immediate post-op (time 0) to last dose at 72 hours.
The OPAS is a validated instrument for quantifying and monitoring corneal and ocular surface pain and quality of life, developed in response to an identified need from a National Eye Institute Workshop in 2010. See Qazi et al., Ophthalmology July 123(7):1458-1468 (2016). The rating scale of the overall pain severity in the OPAS from Qazi et al. rated from 0 (no pain) to 10 (severe pain) or for frequency of symptoms from 0% (never) to 100% (all the time), as per the survey. The patients were asked to fill out the OPAS survey/questionnaire at Day 2, Day 4 (at the end of treatment period with study drug) and Day 8. Statistical analysis of OPAS results was not performed.

[3] = across 4 days of repeated QID dosing
[4] = plasma, Day 1 (first dose), 2.5% topical ocular
[5] = plasma, Day 1 (first dose), 2.5% topical ocular, N 34
[6] = plasma, Day 4 (13th dose), 2.5% four times daily

CC(C)c1nc2cc(O)ccc2c(=O)n1-c1ccc(C#N)cc1 [Compound I, 4-(7-hydroxy-2-isopropyl-4-oxo-4H-quinazolin-3-yl)-benzonitrile]
Change in hand immersion time, compound I vs vehicle (healthy volunteers; MAD part): no meaningful change in immersion time
Temperature sensitivity of the subjects (healthy volunteers; MAD part): does not alter temperature sensitivity
Longest hand immersion time of any subject (healthy volunteers; all subjects in the treatment cohorts): ≤ 22 s
Mean AUClast increase over the 4 days (Day 4 vs Day 1) ([1]; 2.5% 4 times daily): 6.9 fold
Mean Cmax after 13th dose on Day 4 relative to first dose on Day 1 ([1]; 2.5% 4 times daily): 5.3 fold
AUClast, range [1, 3]: 0.261 to 14.5 ng·h/mL
Observed Cmax, range [1, 3]: 0.195 to 7.56 ng/mL
Median plasma Tmax ([1]; after either single (first dose) or repeated 4 times daily topical ocular administration): approximately 0.5 hours
Cmax ([1]; human, plasma, topical, 2.5 % (four times daily), across 4 days of repeated QID dosing, read-out: Observed Cmax, range): 0.195 to 7.56 ng/mL
Tmax ([1]; human, topical or ocular, plasma, Day 1 (first dose), 2.5% topical ocular): 10 to 120 min
Tmax ([1]; human, topical, plasma, Day 4 (13th dose), 2.5% four times daily): 0 to 125 min
AUClast, Median [1, 4]: 0.569 ng·h/mL
Cmax, Median [1, 4]: 0.375 ng/mL
Tmax, Median [1, 4]: 27.5 min
AUClast, Mean (SD) [1, 5]: 0.638 ng·h/mL
Cmax, Mean (SD) [1, 5]: 0.454 ng/mL
AUClast, Median [1, 6]: 3.42 ng·h/mL
Cmax, Median [1, 6]: 2.07 ng/mL
Tmax, Median [1, 6]: 28 min
AUClast, Mean (SD) ([1]; plasma, Day 4 (13th dose), 2.5% four times daily, N 31): 4.38 ng·h/mL
Cmax, Mean (SD) ([1]; plasma, Day 4 (13th dose), 2.5% four times daily, N 33): 2.40 ng/mL
Trough mean plasma concentration (end of 6-hour dose interval) ([1]; prior to the 5th dose on Day 2 (24 hr post 1st dose)): 1.25 ng/mL
Trough mean plasma concentration (end of 6-hour dose interval) ([1]; prior to the 13th dose on Day 4 (72 hr post 1st dose)): 1.99 ng/mL
OPAS questions 4, 5, 6: eye pain intensity during the previous 24 hours (most painful, least painful, average) ([2]; Day 2, compared to Vehicle, no statistical analysis): all 3 answers numerically favored compound I
OPAS questions 22-25: how often eye pain associated with redness, burning, sensitivity to light, tearing ([2]; compared to Vehicle, no statistical analysis): all answers favored compound I
OPAS: pain control and quality of life, compound I vs. Vehicle treatment period ([2]; in vivo): better pain control and quality of life
